Tests used:
[1] = Absolute fluorescence quantum yield; type: physicochemical
[2] = Solubility in organic solvents: effect of tert-butyl substitution; type: physicochemical; conditions: for Löslichkeitssteigerung um einen Faktor: relative to unsubstituted Rubicen (I)
From the text: Der Einfluß der Substitution mit tert.-Butylgruppen wurde an folgenden Systemen untersucht.

## CC(C)(C)c1ccccc1N1C(=O)c2ccc3c4ccc5c6c(ccc(c7ccc(c2c37)C1=O)c64)C(=O)N(c1ccccc1C(C)(C)C)C5=O [Beispiel 3, N,N'-Di-(2-tert.-butyl)-perylen-3,4,9,10-tetracarbonsäure-diimid]
[1]; Chloroform
  Fluoreszenzquantenausbeute (absolut) η: 1,0
[1]; Dimethylformamid (DMF)
  Fluoreszenzquantenausbeute (absolut) η: 0,94

## Di-tert.-butylrubicen
[2]; in n-Hexan bei Zimmertemperatur
  Löslichkeitssteigerung um einen Faktor: ca. 100
[2]; in Äthanol bei Zimmertemperatur
  Löslichkeitssteigerung um einen Faktor: ca. 100

## O=C1c2ccc3c4ccc5c6c(ccc(c7ccc(c2c37)C(=O)N1c1ccccc1)c64)C(=O)N(c1ccccc1)C5=O [III, reference compound]
[2]; in organischen Lösungsmitteln
  Löslichkeit: sehr geringe

## CC(C)(C)c1ccc(N2C(=O)c3ccc4c5ccc6c7c(ccc(c8ccc(c3c48)C2=O)c75)C(=O)N(c2ccc(C(C)(C)C)cc2)C6=O)cc1 [Beispiel 4, N,N'-Di-(4-tert.-butylphenyl)-perylen-3,4,9,10-tetra-carbonsäurediimid]
[1]; Dimethylformamid (DMF)
  Fluoreszenzquantenausbeute (absolut) η: 0,88

## Tetra-tert.-butylrubicen
[2]; solvent not restated (preceding sentence: Äthanol und n-Hexan bei Zimmertemperatur), relative to Rubicen
  erhöhte die Löslichkeit um einen Faktor: ca. 10
